Assay results taken from patent US20250129370A1, “METHOD FOR REDUCING HEPATIC TRIGLYCERIDES” (ADAERATA, LIMITED PARTNERSHIP, priority 2022, published 2025).

Tests used:
PCSK7 mRNA [1] = experiment: PCSK7 mRNA qPCR after miRNA overexpression in Huh7 cells; type: cell-based, human; conditions: Huh7, 48 hours following transfection, vs mock vector
Method: (§1) RNA was isolated from the cells with the TRIzol™ Reagent (Invitrogen, USA) according to the manufacturer's instructions. The RNA samples were treated with RNase-free DNase I (Fermentas, USA) to eliminate any possible DNA contamination. Reverse transcription was performed using the PrimeScript™ First Strand cDNA Synthesis Kit (Takara, Japan) following the manufacturer's protocol. Briefly, one unit of the DNase I enzyme, 1 μL of a buffer, and 1 μg of total RNA were incubated for 30 minutes at 37° C. Then, 1 μL of 50 mM EDTA was added for enzyme inactivation and incubated at 65° C. for 10 minutes. Subsequently, 5 μL of DNase-treated RNA was added to the mix of 0.5 μL of the reverse-transcriptase enzyme, 2 μL of the reverse-transcriptase buffer, and 1 μL of a random hexamer and incubated for 15 minutes at 37° C., followed by 5 seconds at 85° C. for enzyme inactivation. Stem-loop RT-qPCR method was applied for evaluating the expression of miRNAs (Kramer, 2011). […]
(§2) All the reactions were repeated in duplicates. Next, melt curves were analyzed, with the mean threshold cycles used for further analyses. The relative expressions of the miRNAs and PCSK7 to RNU48 small nuclear RNA and/or GAPDH and β2m were calculated, respectively, via the 2-ΔΔCt method. […]

PCSK7 mRNA [2] = experiment: PCSK7 mRNA qPCR after miRNA overexpression in HEK293T cells; type: cell-based, human
Method: as §1, §2

[3] = test system: 3′-UTR of human PCSK7 mRNAs; experiment: Dual-luciferase reporter assay, wild-type PCSK7 3′-UTR, HEK293T cells; type: cell-based; conditions: wild-type PCSK7 3′-UTR psiCHECK-2, HEK293T
Text: The interactions between the miRNAs and their probable targets on PCSK7 were explored by cloning the potential target regions in psiCHECK-2™ (Promega, USA), a luciferase reporter vector. In psiCHECK-2™, hRluc, the Renilla luciferase gene, is located upstream of the target regions of interest cloned into the psiCHECK-2™ vector downstream of the Renilla gene. The region corresponding to the 3′-UTR of PCSK7 (926-nt sequences in length) that constituted the predicted miRNA response elements was PCR-amplified and cloned downstream of the Renilla luciferase gene in the psiCHECK-2™ vector (Promega, USA). […]
The HEK293T cells were co-transfected through the application of the wild-type psiCHECK-2, the wild-type PCSK7 3′-UTR, the mutant PCSK7 3′-UTR, and the miR-overexpressing vectors so that the direct interactions of the nominated miRNAs with PCSK7 3′-UTR could be investigated. […] Transfection efficiency was monitored by fluorescent microscopy (Nikon TE2000S, Japan) 36 hours following the procedure.
The PsiCHECK-2 reporter construct plasmid contained the Renilla luciferase gene upstream of PCSK7 3′-UTR and an independent firefly luciferase gene as an internal control for normalization. […] Then, LARII Reagent was added, and after 20 minutes, the firefly luciferase activity was measured as a control. Afterward, Renilla activity was determined using Stop & Glo Reagent. […]

apoB = apoB degradation pathway in WT and PCSK7-/- IHH cells with pathway inhibitors; type: cell-based, human
Method: FIGS. 7A-l: PCSK7 can bind apoB in the ER and acts as a molecular chaperone-like facilitating its secretion, and its absence leads to a rapid degradation of apoB by the proteasome. […] (FIG. 7A) Western blot (presented on gel and graphically) of apoB100 and PC7 protein levels in WT and PCSK7^−/− IHH cells. Levels are normalized to α-tubulin. (FIG. 7B) Western blot (presented on gel and graphically) of apoB100 and PC7 protein levels over time (0, 15 and 30 minutes) in WT and PCSK7^−/− IHH cells incubated with cycloheximide (CHX) to block de novo mRNA translation. Levels are normalized to α-tubulin. (FIG. 7C-D) Western blot (presented on gel and graphically) of cellular apoB levels in WT and PCSK7^−/− IHH cells incubated with brefeldin A (BFA) that blocks exit from the endoplasmic reticulum (ER), an autophagy inhibitor 3-methyladenine (3MA), proteasome inhibitors MG132, Lactacystin, DMSO or non treated (NT) controls. (FIG. 7E) Western blot (presented on gel) of cellular apoB levels and polyubiquitinated apoB100 in WT and PCSK7^−/− IHH cells incubated with Lactacystin. (FIG. 7F) Schematic representation of apoB100 and apoB21 protein. […]

[4] = molecular target: T1, endogenous apoB100 of IHH cells (human, UniProt P04114 28-4563); experiment: co-immunoprecipitation from IHH cell lysates with a human ApoB antibody, Western blot for the V5 tag (FIG. 7I)
T1 construct: Endogenous protein in lysates of human IHH cells; also called apolipoprotein B
T1 sequence (P04114 28-4563 limits assumed): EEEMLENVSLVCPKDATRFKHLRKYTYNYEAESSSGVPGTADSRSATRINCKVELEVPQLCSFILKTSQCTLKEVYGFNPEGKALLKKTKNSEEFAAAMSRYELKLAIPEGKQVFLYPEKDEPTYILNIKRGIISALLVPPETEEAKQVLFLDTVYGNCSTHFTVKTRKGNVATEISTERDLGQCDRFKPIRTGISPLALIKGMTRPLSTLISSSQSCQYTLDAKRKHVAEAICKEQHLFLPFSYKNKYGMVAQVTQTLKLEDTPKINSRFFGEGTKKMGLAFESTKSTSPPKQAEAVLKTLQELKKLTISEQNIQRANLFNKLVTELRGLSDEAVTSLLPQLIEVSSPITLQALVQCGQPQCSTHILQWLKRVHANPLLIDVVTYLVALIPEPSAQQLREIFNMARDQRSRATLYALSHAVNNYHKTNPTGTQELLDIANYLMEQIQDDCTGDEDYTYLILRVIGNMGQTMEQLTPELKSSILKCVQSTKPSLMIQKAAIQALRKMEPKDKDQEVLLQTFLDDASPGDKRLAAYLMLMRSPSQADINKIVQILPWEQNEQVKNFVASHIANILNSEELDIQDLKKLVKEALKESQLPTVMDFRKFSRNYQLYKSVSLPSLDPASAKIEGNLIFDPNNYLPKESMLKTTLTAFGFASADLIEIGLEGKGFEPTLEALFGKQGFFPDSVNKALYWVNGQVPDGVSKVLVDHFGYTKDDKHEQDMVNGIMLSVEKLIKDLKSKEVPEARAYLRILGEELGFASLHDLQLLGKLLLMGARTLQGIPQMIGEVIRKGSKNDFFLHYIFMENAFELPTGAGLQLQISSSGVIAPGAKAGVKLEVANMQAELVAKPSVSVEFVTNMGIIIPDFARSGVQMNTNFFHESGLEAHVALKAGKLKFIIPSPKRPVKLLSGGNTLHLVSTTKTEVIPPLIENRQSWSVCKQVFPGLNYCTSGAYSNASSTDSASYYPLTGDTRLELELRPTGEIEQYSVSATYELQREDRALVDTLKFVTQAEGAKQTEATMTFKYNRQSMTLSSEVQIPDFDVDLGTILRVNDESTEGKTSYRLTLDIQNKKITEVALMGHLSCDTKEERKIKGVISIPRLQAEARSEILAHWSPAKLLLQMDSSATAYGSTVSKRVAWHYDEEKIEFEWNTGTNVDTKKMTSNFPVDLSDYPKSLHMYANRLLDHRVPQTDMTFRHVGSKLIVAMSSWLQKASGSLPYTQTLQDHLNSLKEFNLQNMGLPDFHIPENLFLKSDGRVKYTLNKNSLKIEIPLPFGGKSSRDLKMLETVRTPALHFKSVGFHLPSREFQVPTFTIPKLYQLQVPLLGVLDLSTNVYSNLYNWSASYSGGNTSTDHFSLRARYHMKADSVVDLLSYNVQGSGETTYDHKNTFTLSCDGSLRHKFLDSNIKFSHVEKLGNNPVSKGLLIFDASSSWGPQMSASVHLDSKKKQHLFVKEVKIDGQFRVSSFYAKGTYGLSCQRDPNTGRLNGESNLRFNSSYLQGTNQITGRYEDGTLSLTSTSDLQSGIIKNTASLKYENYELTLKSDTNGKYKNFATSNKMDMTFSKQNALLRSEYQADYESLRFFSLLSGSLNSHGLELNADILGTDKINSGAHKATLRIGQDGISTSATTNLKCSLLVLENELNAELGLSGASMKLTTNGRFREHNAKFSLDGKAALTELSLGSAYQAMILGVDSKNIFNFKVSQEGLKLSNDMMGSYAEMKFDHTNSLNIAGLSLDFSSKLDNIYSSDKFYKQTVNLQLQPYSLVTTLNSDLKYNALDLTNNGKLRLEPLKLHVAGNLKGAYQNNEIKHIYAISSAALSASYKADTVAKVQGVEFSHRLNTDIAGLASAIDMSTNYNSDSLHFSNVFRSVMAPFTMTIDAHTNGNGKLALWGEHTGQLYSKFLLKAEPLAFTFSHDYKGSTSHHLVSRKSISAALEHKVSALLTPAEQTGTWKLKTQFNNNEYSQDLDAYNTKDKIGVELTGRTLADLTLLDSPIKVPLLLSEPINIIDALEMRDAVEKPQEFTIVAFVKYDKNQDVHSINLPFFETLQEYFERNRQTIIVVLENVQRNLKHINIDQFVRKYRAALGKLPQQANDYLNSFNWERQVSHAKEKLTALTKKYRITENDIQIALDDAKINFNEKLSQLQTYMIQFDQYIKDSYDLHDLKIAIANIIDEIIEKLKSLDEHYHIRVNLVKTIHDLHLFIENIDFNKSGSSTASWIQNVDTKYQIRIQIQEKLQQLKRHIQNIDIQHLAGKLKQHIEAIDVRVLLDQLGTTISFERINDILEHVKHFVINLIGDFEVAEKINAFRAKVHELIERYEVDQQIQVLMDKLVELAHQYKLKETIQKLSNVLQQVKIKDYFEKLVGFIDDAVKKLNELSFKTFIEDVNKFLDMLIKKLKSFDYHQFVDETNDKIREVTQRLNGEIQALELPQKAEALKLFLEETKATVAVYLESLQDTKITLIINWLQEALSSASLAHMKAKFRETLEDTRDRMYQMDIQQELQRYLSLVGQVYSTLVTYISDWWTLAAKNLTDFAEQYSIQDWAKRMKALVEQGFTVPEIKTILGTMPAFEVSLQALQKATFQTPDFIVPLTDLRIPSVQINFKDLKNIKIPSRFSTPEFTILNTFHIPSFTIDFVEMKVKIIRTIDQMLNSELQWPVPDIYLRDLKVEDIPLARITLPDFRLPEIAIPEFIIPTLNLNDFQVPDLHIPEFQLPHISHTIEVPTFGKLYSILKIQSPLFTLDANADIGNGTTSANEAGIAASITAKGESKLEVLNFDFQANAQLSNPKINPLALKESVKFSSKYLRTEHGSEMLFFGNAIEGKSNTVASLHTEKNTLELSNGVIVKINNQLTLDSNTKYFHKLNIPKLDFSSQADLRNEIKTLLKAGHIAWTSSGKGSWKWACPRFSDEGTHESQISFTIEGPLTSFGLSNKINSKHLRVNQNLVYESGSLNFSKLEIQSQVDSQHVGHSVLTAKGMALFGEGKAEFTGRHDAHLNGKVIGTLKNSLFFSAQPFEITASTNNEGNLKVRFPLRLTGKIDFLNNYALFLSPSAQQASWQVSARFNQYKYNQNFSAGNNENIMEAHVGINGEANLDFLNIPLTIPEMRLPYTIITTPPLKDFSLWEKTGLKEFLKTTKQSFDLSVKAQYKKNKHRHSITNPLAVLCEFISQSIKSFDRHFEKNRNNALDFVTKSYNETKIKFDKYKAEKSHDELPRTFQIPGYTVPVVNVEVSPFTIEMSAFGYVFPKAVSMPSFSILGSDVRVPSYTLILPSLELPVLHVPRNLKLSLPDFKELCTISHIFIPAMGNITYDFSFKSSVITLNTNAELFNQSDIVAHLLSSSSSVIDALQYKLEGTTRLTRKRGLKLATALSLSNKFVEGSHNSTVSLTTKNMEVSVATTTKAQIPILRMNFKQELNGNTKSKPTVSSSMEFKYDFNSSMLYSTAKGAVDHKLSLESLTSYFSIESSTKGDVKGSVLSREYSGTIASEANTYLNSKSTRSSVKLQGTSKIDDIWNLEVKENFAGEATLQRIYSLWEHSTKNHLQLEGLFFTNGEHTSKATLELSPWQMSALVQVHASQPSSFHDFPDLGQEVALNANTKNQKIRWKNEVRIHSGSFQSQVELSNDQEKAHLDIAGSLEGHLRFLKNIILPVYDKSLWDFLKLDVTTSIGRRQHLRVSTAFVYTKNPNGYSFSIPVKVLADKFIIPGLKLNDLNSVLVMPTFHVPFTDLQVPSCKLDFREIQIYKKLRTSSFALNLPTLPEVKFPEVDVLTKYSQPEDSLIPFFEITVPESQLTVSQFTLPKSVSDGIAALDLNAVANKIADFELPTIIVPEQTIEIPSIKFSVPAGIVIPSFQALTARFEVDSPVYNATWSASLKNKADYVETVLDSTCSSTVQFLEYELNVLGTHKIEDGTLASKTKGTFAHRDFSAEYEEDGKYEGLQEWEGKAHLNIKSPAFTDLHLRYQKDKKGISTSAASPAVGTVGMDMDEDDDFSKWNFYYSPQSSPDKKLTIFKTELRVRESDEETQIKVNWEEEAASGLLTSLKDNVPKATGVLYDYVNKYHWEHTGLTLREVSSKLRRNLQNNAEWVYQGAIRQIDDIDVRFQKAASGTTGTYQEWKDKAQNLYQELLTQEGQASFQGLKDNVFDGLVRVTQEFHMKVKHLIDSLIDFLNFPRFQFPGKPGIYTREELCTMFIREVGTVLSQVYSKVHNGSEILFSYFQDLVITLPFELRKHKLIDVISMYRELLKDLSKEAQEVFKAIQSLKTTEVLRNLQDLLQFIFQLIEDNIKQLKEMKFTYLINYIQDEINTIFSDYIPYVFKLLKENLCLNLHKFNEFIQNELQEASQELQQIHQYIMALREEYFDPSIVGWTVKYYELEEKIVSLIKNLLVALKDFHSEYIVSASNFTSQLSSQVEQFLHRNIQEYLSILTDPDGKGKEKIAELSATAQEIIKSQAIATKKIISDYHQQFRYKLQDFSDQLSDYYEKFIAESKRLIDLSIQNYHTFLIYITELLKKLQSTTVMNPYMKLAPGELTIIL

Q: How did the “effect on expression of PCSK7 mRNA” value (PCSK7 mRNA [1]) turn out when “miR-320a-3p: predicted PCSK7-targeting miRNA with one predicted target site, overexpressed from precursor vector (AAAAGCUGGGUUGAGAGGGCGA; miRNA expressed from a precursor vector, further chemistry not given here)” was run?
A: Its value is “did not downregulate”.

Q: What about the “effect on PCSK7 mRNA levels” value (PCSK7 mRNA [2]) of the same molecule?
A: The value was “no significant regulatory relationship”.

Q: And the “effect on luciferase activity” value [3]?
A: The value was “no significant effect”.

Q: `C[C@H]1CCC/C=C/[C@@H]2C[C@H](O)C[C@H]2[C@H](O)/C=C/C(=O)O1` [BFA, brefeldin A] was tested. Which “inhibition of apoB degradation” value (apoB) did it give?
A: The value was “absence of BFA inhibition”.

B1: SKI-1 tagged with V5 (enzyme, UniProt Q14703 187-1052, looked up)
chain: RAIPRQVAQTLQADVLWQMGYTGANVRVAVFDTGLSEKHPHFKNVKERTNWTNERTLDDGLGHGTFVAGVIASMRECQGFAPDAELHIFRVFTNNQVSYTSWFLDAFNYAILKKIDVLNLSIGGPDFMDHPFVDKVWELTANNVIMVSAIGNDGPLYGTLNNPADQMDVIGVGGIDFEDNIARFSSRGMTTWELPGGYGRMKPDIVTYGAGVRGSGVKGGCRALSGTSVASPVVAGAVTLLVSTVQKRELVNPASMKQALIASARRLPGVNMFEQGHGKLDLLRAYQILNSYKPQASLSPSYIDLTECPYMWPYCSQPIYYGGMPTVVNVTILNGMGVTGRIVDKPDWQPYLPQNGDNIEVAFSYSSVLWPWSGYLAISISVTKKAASWEGIAQGHVMITVASPAETESKNGAEQTSTVKLPIKVKIIPTPPRSKRVLWDQYHNLRYPPGYFPRDNLRMKNDPLDWNGDHIHTNFRDMYQHLRSMGYFVEVLGAPFTCFDASQYGTLLMVDSEEEYFPEEIAKLRRDVDNGLSLVIFSDWYNTSVMRKVKFYDENTRQWWMPDTGGANIPALNELLSVWNMGFSDGLYEGEFTLANHDMYYASGCSIAKFPEDGVVITQTFKDQGLEVLKQETAVVENVPILGLYQIPAEGGGRIVLYGDSNCLDDSHRQKDCFWLLDALLQYTSYGVTPPSLSHSGNRQRPPSGAGSVTPERMEGNHLHRYSKVLEAHLGDPKPRPLPACPRLSWAKPQPLNETAPSNLWKHQKLLSIDLDKVVLPNFRSNRPQVRPLSPGESGAWDIPGGIMPGRYNQEVGQTIPVFAFLGAMVVLAFFVVQINKAKSRPKRRKPRVKRPQLMQQVHPPKTPSV
notes: also called SKI-1-V5; not shown: V5 tag
Q: Does B1 bind [4]?
A: Result: no binding
